Laboratory results reported in the NIST ThermoML archive (doi:10.1016/j.tca.2016.01.009).
Numbers after ± are expanded uncertainties.

Conditions: Crystal; visual observation

Q: With OCc1cn(Cc2ccccc2)nn1 [(1-benzyl-1H-1,2,3-triazol-4-yl)methanol] as the compound, how does the Normal melting temperature read?
A: Its Normal melting temperature is 78.70 ± 0.48 °C.
